# Measurements: patent US20150011508A1, “COMPOUNDS AND COMPOSITIONS AS C-KIT KINASE INHIBITORS” (priority 2011, published 2015)
# Molecular target: T1, c-kit (Homo sapiens, UniProt P10721)
# T1 construct: human Mo7e cells which endogenously express c-kit; endogenous in cells; host or cells: human Mo7e cells (SCF-dependent promegakaryocytic leukemia line)
# Assay: Mo7e cell proliferation assay (SCF dependent proliferation)
# Format: cell-based
# Conditions: Table 1; human Mo7e cells stimulated with human recombinant SCF, 48 h, CellTiter Glo; 1% FBS (footnote)
# How it was run: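 SCF-dependent proliferation of human Mo7e cells, which express c-kit endogenously, was measured after 48 h at 37° C by CellTiter Glo luminescence. IC50 was taken as the concentration giving a response halfway between the baseline and maximum responses.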
# T1 sequence (P10721 26-976): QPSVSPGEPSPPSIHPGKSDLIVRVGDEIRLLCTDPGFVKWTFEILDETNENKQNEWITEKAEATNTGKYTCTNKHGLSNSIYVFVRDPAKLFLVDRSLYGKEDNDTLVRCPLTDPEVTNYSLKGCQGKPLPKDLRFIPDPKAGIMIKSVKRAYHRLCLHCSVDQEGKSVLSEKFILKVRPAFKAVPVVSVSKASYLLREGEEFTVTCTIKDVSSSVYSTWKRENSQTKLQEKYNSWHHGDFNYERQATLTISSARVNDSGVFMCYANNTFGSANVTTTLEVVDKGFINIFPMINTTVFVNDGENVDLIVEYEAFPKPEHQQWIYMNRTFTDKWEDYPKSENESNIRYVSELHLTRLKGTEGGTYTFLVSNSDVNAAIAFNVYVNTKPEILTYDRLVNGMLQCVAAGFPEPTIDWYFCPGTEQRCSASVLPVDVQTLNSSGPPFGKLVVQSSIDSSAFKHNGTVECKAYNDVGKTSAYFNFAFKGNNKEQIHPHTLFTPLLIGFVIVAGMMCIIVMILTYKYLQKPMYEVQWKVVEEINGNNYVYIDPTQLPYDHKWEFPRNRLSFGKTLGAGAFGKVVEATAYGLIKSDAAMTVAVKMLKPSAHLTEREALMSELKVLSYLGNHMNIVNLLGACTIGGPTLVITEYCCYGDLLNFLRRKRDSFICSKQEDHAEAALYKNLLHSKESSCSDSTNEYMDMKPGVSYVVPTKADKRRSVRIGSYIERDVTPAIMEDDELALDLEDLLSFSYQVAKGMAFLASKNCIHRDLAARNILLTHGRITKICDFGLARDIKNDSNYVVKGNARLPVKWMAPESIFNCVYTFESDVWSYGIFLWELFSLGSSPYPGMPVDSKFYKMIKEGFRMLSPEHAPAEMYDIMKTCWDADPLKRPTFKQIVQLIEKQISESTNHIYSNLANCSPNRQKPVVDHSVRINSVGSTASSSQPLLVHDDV
row,SMILES,IC50 [nM]
1,CCN(CC)C(=O)CCc1nc(-c2ccc(C)c(NC(=O)c3cnc4ccccn34)c2)no1 [F4],67
2,Cc1ccc2ncc(C(=O)Nc3cc(-c4noc(COCC(F)(F)F)n4)ccc3C)n2c1 [F79],13
3,CCOCc1nc(-c2ccc(C)c(NC(=O)c3cnc4ccccn34)c2)no1 [F12],49
4,COC(=O)NCc1nc(-c2ccc(C)c(NC(=O)c3cnc4cc(-c5cnn(CCN6CCOCC6)c5)ccn34)c2)no1 [F41],23
5,Cc1nc(-c2ccc(C)c(NC(=O)c3cnc4ccc(-c5c(C)noc5C)cn34)c2)no1 [F49],53
6,CNC(=O)c1ccc(-c2ccc3ncc(C(=O)Nc4cc(-c5noc(C)n5)ccc4C)n3c2)cn1 [F93],68
7,Cc1ccc2ncc(C(=O)Nc3cc(-c4noc(CC[C@@](C)(O)C(F)(F)F)n4)ccc3C)n2c1 [F87],29
8,"Cc1ccn2c(C(=O)Nc3cc(-c4noc(CC[C@](C)(O)C(F)(F)F)n4)ccc3C)cnc2c1 (single isomer, unassigned) [F75]",64

# Now from value to compound:
row,IC50 [nM],SMILES
1,19,"Cc1nc(-c2ccc(C)c(NC(=O)c3cnc4ccc(-c5c[nH]nc5C)cn34)c2)no1 [F257, 6-(3-methyl-1H-pyrazol-4-yl)-N-(2-methyl-5-(5-methyl-1,2,4-oxadiazol-3-yl)phenyl)imidazo[1,2-a]pyridine-3-carboxamide]"
2,75,"Cc1nc(-c2ccc(C)c(NC(=O)c3cnc4ccc(-c5sc(C(=O)NCCN6CCOCC6)nc5C)cn34)c2)no1 [F262, 4-methyl-5-(3-((2-methyl-5-(5-methyl-1,2,4-oxadiazol-3-yl)phenyl)carbamoyl)imidazo[1,2-a]pyridin-6-yl)-N-(2-morpholinoethyl)thiazole-2-carboxamide]"

# Same assay, conditions: Table 2; human Mo7e cells stimulated with human recombinant SCF, 48 h, CellTiter Glo; 1% FBS (footnote)
row,SMILES,IC50 [nM]
1,Cc1ccc(-c2noc(C(C)(C)O)n2)cc1NC(=O)c1cnc2ccccn12 [F173],281
2,Cc1ccc(-c2noc(CNS(C)(=O)=O)n2)cc1NC(=O)c1cnc2ccccn12 [F129],124
3,Cc1ccc(-c2noc(CNC(=O)OCCF)n2)cc1NC(=O)c1cnc2ccccn12 [F157],155
4,Cc1ccc(-c2noc(CO)n2)cc1NC(=O)c1cnc2ccccn12 [F124],217
5,Cc1ccc(-c2noc(CCC(C)(C)O)n2)cc1NC(=O)c1cnc2cc(F)ccn12 [F169],142
6,COCCOCc1nc(-c2cc(NC(=O)c3cnc4ccccn34)c(C)cc2F)no1 [F155],396
7,COCCOCc1nc(-c2ccc(F)c(NC(=O)c3cnc4ccc(-c5cnn(CC(C)(C)O)c5)cn34)c2)no1 [F182],328
8,COCCNC(=O)OCc1nc(-c2ccc(C)c(NC(=O)c3cnc4ccccn34)c2)no1 [F131],139
9,Cc1nc(-c2ccc(C)c(NC(=O)c3cnc4cc(C#N)ccn34)c2)no1 [F187],219
10,COCCOCc1nc(-c2ccc(C)c(NC(=O)c3cnc4ccc(F)cn34)c2)no1 [F179],139

# The next lines start with the values.
row,IC50 [nM],SMILES
1,126,Cc1ccc(-c2noc(C(F)C(F)(F)F)n2)cc1NC(=O)c1cnc2ccccn12 (centres unmarked) [F199]
2,> 10000,COC(=O)NCc1nc(-c2ccc(C)c(NC(=O)c3cnc4ccc(CCC(=O)O)cn34)c2)no1 [F230]
3,1030,Cc1ccc(-c2noc(CN)n2)cc1NC(=O)c1cnc2ccccn12 [F217]
4,1250,Cc1ccc(-c2noc(CCC(C)(C)O)n2)cc1NC(=O)c1cnc2ccc(-n3ccnc3)cn12 [F221]
5,125,Cc1nc(-c2ccc(C)c(NC(=O)c3cnc4ccc(-c5cnccn5)cn34)c2)no1 [F201]
6,150,Cc1ccc(-c2noc(CCC(C)(C)O)n2)cc1NC(=O)c1cnc2ccc(COCC(F)(F)F)cn12 [F195]
